Where a name gives a salt, the structure may show the parent alone.

These results are taken from patent US7838674B2, “Tetracyclic lactame derivatives” (Novartis AG, priority 2007, dated 2010).

The target of the assay is T1, MAPKAPK2 enzyme (HIS-MK2, Invitrogen PV4019) (Homo sapiens, UniProt P49137).
T1 construct: His; purchased Invitrogen PV4019
T1 sequence (P49137 whole entry): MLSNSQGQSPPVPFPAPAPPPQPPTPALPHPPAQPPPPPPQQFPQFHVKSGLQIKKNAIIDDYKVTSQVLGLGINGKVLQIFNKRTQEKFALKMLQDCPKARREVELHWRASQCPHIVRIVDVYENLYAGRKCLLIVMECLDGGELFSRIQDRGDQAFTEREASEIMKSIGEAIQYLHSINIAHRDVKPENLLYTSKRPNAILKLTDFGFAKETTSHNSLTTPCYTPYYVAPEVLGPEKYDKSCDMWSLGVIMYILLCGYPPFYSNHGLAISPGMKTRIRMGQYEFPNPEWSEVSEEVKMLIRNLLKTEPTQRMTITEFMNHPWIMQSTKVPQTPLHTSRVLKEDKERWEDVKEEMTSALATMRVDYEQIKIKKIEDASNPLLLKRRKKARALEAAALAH
The assay can be described thus: Alternative MAPKAPK2 assay (Caliper microfluidic mobility shift, HSP27-peptide). The assay is classed as biochemical. Particulars: HIS-MK2 0.013 nM, ATP 10 μM, 60 min at 30° C.
In the case of `O=C(NCc1ccccc1)c1ccc(-c2cc3c(cn2)CCc2c-3[nH]c3c2C(=O)NC2(CC2)C3)o1` [Example 282, 5-(9,9-Spirocyclopropyl-7-oxo-6,7,8,9,10,11-hexahydro-5H-3,8,11-triaza-benzo[a]fluoren-2-yl)-furan-2-carboxylic acid benzylamide], the concentration for half-maximal inhibition (IC50) is 21 nM.

On to `COc1ncc(-c2cc3c(cn2)CCc2c-3[nH]c3c2C(=O)NC2(CC2)C3)s1` [Example 283, 2-(1-Amino-cyclopropylmethyl)-8-(2-methoxy-5-thiazolyl)-4,5-dihydro-1H-pyrrolo[2,3-f]isoquinoline-3-carboxylic acid lactam], for which the IC50 turned out to be 98 nM.

Regarding `O=C1NC2(CNC2)Cc2[nH]c3c(c21)CCc1cnc(-c2cccc(Br)c2)nc1-3` [Example 285, 2-(3-Amino-azetidin-3-ylmethyl)-8-(3-bromo-phenyl)-4,5-dihydro-1H-1,7,9-triaza-cyclopenta[a]naphthalene-3-carboxylic acid lactam hydrochloride], the IC50 was found to be 7 nM.

`Cn1c2c(c3c1-c1nc(-c4cccc(Br)c4)ncc1CC3)C(=O)NC1(CNC1)C2` [Example 286, 2-(3-Amino-azetidin-3-ylmethyl)-8-(3-bromo-phenyl)-1-methyl-4,5-dihydro-1H-1,7,9-triaza-cyclopenta[a]naphthalene-3-carboxylic acid lactam hydrochloride]: the concentration for half-maximal inhibition (IC50) is 48 nM.

As for `Cn1c2c(c3c1-c1nc(-c4cccc(C#N)c4)ncc1CC3)C(=O)NC1(CNC1)C2` [Example 287, 2-(3-Amino-azetidin-3-ylmethyl)-8-(3-cyano-phenyl)-1-methyl-4,5-dihydro-1H-1,7,9-triaza-cyclopenta[a]naphthalene-3-carboxylic acid lactam hydrochloride], the half-inhibitory concentration (IC50) was determined as 25 nM.

With `O=C(NCc1ccccc1)c1cncc(-c2ncc3c(n2)-c2[nH]c4c(c2CC3)C(=O)NCC42CC2)c1` [Example 290, N-Benzyl-5-(10-spirocyclopropyl-7-oxo-6,7,8,9,10,11-hexahydro-5H-1,3,8,11-tetraaza-benzo[a]fluoren-2-yl)-nicotinamide], the IC50 is 86 nM.

For `Cn1c2c(c3c1-c1nc(-c4cncc(C(=O)NCc5ccccc5)c4)ncc1CC3)C(=O)NC1(CNC1)C2` [Example 296, 2-(3-Amino-azetidin-3-ylmethyl)-8-(3-benzylcarbamoyl-3-pyridyl)-1-methyl-4,5-dihydro-1H-1,7,9-triaza-cyclopenta[a]naphthalene-3-carboxylic acid lactam hydrochloride], the concentration for half-maximal inhibition (IC50) came out at 17 nM.

In the case of `O=C1NCC2(CCC2)c2[nH]c3c(c21)CCc1cnc(-c2ccc(CN4CCOCC4)c(F)c2)cc1-3` [Example 298, 2-(3-Fluoro-4-morpholin-4-ylmethyl-phenyl)-10-spirocyclobutyl-5,6,8,9,10,11-exahydro-3,8,11-triaza-benzo[a]fluoren-7-one], the IC50 worked out at 20 nM.

For the molecule `COc1ccc(-c2cc3c(cn2)CCc2c-3[nH]c3c2C(=O)NCC32CCC2)cc1F` [Example 299, 2-(3-Fluoro-4-methoxy-phenyl)-10-spirocyclobutyl-5,6,8,9,10,11-hexahydro-3,8,11-triaza-benzo[a]fluoren-7-one], the IC50 came to 39 nM.

Regarding `O=C1NCC2(CCC2)c2[nH]c3c(c21)CCc1cnc(-c2ccc(F)nc2)cc1-3` [Example 300, 2-(6-Fluoro-pyridin-3-yl)-10-spirocyclobutyl-5,6,8,9,10,11-hexahydro-3,8,11-triaza-benzo[a]fluoren-7-one], the IC50 turned out to be 15 nM.

On to `O=C1NCC2(CC2)c2[nH]c3c(c21)CCc1cnc(-c2cncc(N4CCOCC4)c2)cc1-3` [Example 302, 2-(5-Morpholin-4-yl-pyridin-3-yl)-10-spirocyclopropyl-5,6,8,9,10,11-hexahydro-3,8,11-triaza-benzo[a]fluoren-7-one], for which the IC50 was 22 nM.

In general, IC50 refers to the midpoint of a concentration-inhibition curve.
